This is an account of results in patent publication US12472201B2, “Complexing agent salt formulations of pharmaceutical compounds” (Bexson Biomedical, Inc., priority 2020, dated 2025).

A short description of data set [1]: Final pH and average osmolality of API Captisol formulations and API salt solutions.
The nature of data set [2]: Theoretical vs measured osmolarities of API-Cap formulations. In kind it is physicochemical. As to conditions: API-Cap Formulations at 70 mg/mL freebase equivalents; for Percentage of Theoretical: measured osmolality vs calculated osmolarity.
The nature of data set [3]: Solubility of DMT, 5-MeO-DMT and Mescaline in Captisol sodium solution. In kind it is physicochemical. As to conditions: equimolar Captisol Sodium form in water; for Appearance after filtration / Osmolality / pH: agitated overnight; for Amine Conc.: total 10 g, agitated at room temperature overnight, after filtration. Here is the method: An equimolar amount of Captisol Sodium form and 5 mL HPLC grade water were added to three 20 mL vials equipped with stir bars. Once a solution was formed, 638 mg of DMT, 700 mg of 5-MeO-DMT, and 700 mg of Mescaline were added to each vial. Each solution was diluted with water to a total solution weight of 10 g. The mixtures were agitated at room temperature overnight and analyzed.

Data set [4] can be described thus: Forced precipitation of API HCl salt and API FB-CapAcid formulation with 2M NaOH. In kind it is physicochemical. As to conditions: 70 mg/mL API in FB equivalents, 1 mL scale, 1 μL increments of 2M NaOH, starting pH 7.0±0.1.
A short description of a further data set: physchem. Particulars: water, thermodynamic from solid.
Data set [5] is described as follows: Osmolality of ketamine HCl and ketamine-Captisol complexes. Particulars: for Mean Osmolality: each sample run in triplicate. It is filed as physicochemical. Here is the method:
Osmolality. Osmolality readings were obtained on an Advanced Instruments Advanced™ Micro Osmometer Model 3300 (Advanced Instruments, Inc. Norwood, MA, USA). Saline solutions (0.9% and 3%) were freshly prepared with sodium chloride (Fisher Scientific, Fair Lawn, NJ) and run as positive controls. Each sample was calculated as the mean from back-to-back triplicate measurements.

Data set [6] in a line: Forced precipitation of racemic ketamine with 2M NaOH. It is filed as physicochemical. Particulars: 70 mg/mL ketamine FB equiv., 2 mL volume, 2M NaOH after pH 5.5 in 1-2 μL volumes. Here is the method: The tests were conducted on a 2 mL volume. Base was added in 1-2 μL volumes.
Where [7] appears, read: API HCl salt (70 mg/mL in FB equiv).
Setting [8] is: CapAcid-API Freebase Formulation (70 mg/mL API FB, 1.1 molar equiv CapAcid).
Setting [9] is: Captisol-API HCl salt formulation (70 mg/mL API HCl salt in FB equiv, 1.1 molar equiv Captisol in CapAcid equiv).
Where [10] appears, read: Captisol salt formulation with Sumatriptan stoichiometric succinate salt, 70 mg/mL FB equiv.
Where [11] appears, read: salt solution, Sumatriptan stoichiometric succinate salt, 70 mg/mL FB equiv.
Setting [12] is: Captisol salt formulation with DXM HBr 15 mg/mL FB equiv.
Where [13] appears, read: salt solution, DXM HBr 15 mg/mL FB equiv.
Setting [14] is: salt solution, 5-IAI HCl 35 mg/mL FB equiv.
Setting [15] is: Captisol salt formulation with nicotine Stoichiometric Fumarate salt, 70 mg/mL FB equiv.
Setting [16] is: salt solution, nicotine Stoichiometric Fumarate salt, 70 mg/mL FB equiv.

“And” between values parts separate entries of the source, which are not always exact repeats. Identical values can stand only once. Counter-ions that a name gives are not always drawn. Marks after values point to notes of the source that are not given here.

Turning to `CNC(C)C(=O)c1cccc(C)c1` (stereo not shown) [Example 3-MMC, 2-(methylamino)-1-(m-tolyl)propan-1-one], the Osmolality in data set [1] (setting [7]) is given as 636 mOsm/kg; in data set [1] (setting [8]) it was 312 mOsm/kg; in data set [1] (setting [9]) it was 1,190* mOsm/kg. In addition, the pH in data set [1] (setting [7]) stood at 4.76; in data set [1] (setting [8]) it was 6.99; in data set [1] (setting [9]) it was 6.98. Moreover, in data set [2], the “Measured Osmolality” value came out at 312 mOsmol/L.
Consider `COc1ccc2[nH]cc(CCN(C)C)c2c1` [Example 5-MeO-DMT, 5-methoxy-N,N-dimethyltryptamine], for which, in data set [3], the Appearance after filtration result is listed as “Clear/faint yellow”, the Osmolality is reported as 316 mOsm/kg, the pH stood at 11.03 and the “Amine Conc.” value worked out at 14.6 mg/mi.
For `Cc1cccc(C(=O)C(C)N(C)C)c1.Cl` (stereo not shown) [Me-3-MMC HCl, Me-3-MMC hydrochloride], in data set [4], the “Volume of Base need for Precipitation” value was 6.5* μL.
Regarding `COc1cc(CCN)cc(OC)c1OC` [Mescaline], in data set [3], the Appearance after filtration entry was “Clear/light yellow”, the Osmolality worked out at 570 mOsm/kg, the pH is on record as 11.69 and the “Amine Conc.” value stood at 77.7 mg/mi.
Regarding `CCN(CC)CC(=O)Nc1c(C)cccc1C` [Lidocaine HCl, reference compound], in data set [4], the “Volume of Base need for Precipitation” value is 5 µL.
As to `CNC(C)Cc1cccc(F)c1` (stereo not shown) [Example 3-FMA, 1-(3-fluorophenyl)-N-methylpropan-2-amine], the Osmolality in data set [1] (setting [7]) was 706 mOsm/kg; in data set [1] (setting [8]), 337 mOsm/kg; in data set [1] (setting [9]) it was 1,388 mOsm/kg. Also, the pH worked out at 5.17 in data set [1] (setting [7]), 6.78 in data set [1] (setting [8]) and 7.01 in data set [1] (setting [9]). Also, the “Measured Osmolality” value in data set [2] is 337 mOsmol/L.
As to `CNC1(c2ccccc2)CCCCC1=O` (stereo not shown) [DCK, 2-(methylamino)-2-phenylcyclohexan-1-one], the Osmolality in data set [1] (setting [7]) is listed as 601 mOsm/kg; in data set [1] (setting [8]) it was 310 mOsm/kg; in data set [1] (setting [9]) it was 1,086 mOsm/kg. Besides, the figures for the pH in data set [1] (setting [7]), in data set [1] (setting [8]) and in data set [1] (setting [9]) were 4.73, 7.00 and 6.98, respectively. In addition, in data set [2], the “Measured Osmolality” value was found to be 310 mOsmol/L. The “Percentage of Theoretical” value in data set [2] is 77.1%.
On to `CNC(C)Cc1cccc(F)c1.Cl` (stereo not shown) [3-FMA HCl], for which the “Volume of Base need for Precipitation” value in data set [4] is 37 µL.
On to `CN1CC[C@]23c4c5ccc(O)c4O[C@H]2[C@@H](O)C=C[C@H]3[C@H]1C5` [Morphine, reference compound], for which, in data set [1] (setting [8]), the Osmolality worked out at 166 mOsm/kg and the pH came out at 6.09. Moreover, in data set [2], the “Measured Osmolality” value amounted to 166 mOsmol/L and the “Percentage of Theoretical” value was 57.9%.
As for `CNC(C)Cc1ccc2occc2c1.Cl` (stereo not shown) [5-MAPB HCl], in data set [4], the “Volume of Base need for Precipitation” value is recorded as 47* μL.
`CCN(CC)CC(=O)Nc1c(C)cccc1C` [Lidocaine, reference compound]: the figures for the Osmolality in data set [1] (setting [7]), in data set [1] (setting [8]) and in data set [1] (setting [9]) were 543 mOsm/kg, 304 mOsm/kg and 844 mOsm/kg, respectively. The pH is 4.60 in data set [1] (setting [7]), 6.99 in data set [1] (setting [8]) and 6.95 in data set [1] (setting [9]). In addition, the “Measured Osmolality” value in data set [2] is reported as 304 mOsmol/L. For the same compound, in data set [2], the “Percentage of Theoretical” value is listed as 87.0%.
For the compound `CNC1(c2ccccc2Cl)CCCCC1=O` (stereo not shown) [Ketamine], in data set [2], the “Measured Osmolality” value came out at 291 mOsmol/L and the “Percentage of Theoretical” value is 84.6%.
For `CNC1(c2ccccc2F)CCCCC1=O` (stereo not shown) [Example 2-F-DCK, 2-(2-fluorophenyl)-2-(methylamino)cyclohexan-1-one], in data set [1] (setting [7]), the Osmolality is 560 mOsm/kg and the pH is on record as 4.27. In addition, in data set [1] (setting [8]), the Osmolality is 373 mOsm/kg and the pH was determined as 6.97. Further, the Osmolality in data set [1] (setting [9]) is recorded as 1,046 mOsm/kg. Besides, in data set [2], the “Measured Osmolality” value was 373 mOsmol/L and the “Percentage of Theoretical” value is 100.9%.
For the compound `CNS(=O)(=O)Cc1ccc2[nH]cc(CCN(C)C)c2c1` [Sumatriptan, 1-(3-(2-(dimethylamino)ethyl)-1H-indol-5-yl)-N-methylmethanesulfonamide, reference compound], the Osmolality in data set [1] (setting [8]) is reported as 109 mOsm/kg; in data set [1] (setting [10]) it was 858 mOsm/kg; in data set [1] (setting [11]), 293 mOsm/kg. Also, the pH in data set [1] (setting [8]) amounted to 7.06; in data set [1] (setting [10]), 6.99; in data set [1] (setting [11]), 4.57. In addition, the “Measured Osmolality” value in data set [2] was 109 mOsmol/L.
The term solubility denotes how much of the substance goes into solution per volume. High values mean much dissolved substance, low ones little dissolved substance. In “physchem”, `COc1ccc2c(c1)[C@]13CCCC[C@@H]1[C@H](C2)N(C)CC3` [DXM HBr hydrate, dextromethorphan HBr hydrate] gave a solubility at 48 h of 16.4 mg/mL.
As to `COc1ccc2c(c1)[C@]13CCCC[C@@H]1[C@H](C2)N(C)CC3` [DXM, dextromethorphan, reference compound], the values for the Osmolality in data set [1] (setting [8]), in data set [1] (setting [12]) and in data set [1] (setting [13]) were 113 mOsm/kg, 145* mOsm/kg and 91 mOsm/kg, respectively. Besides, the figures for the pH in data set [1] (setting [8]), in data set [1] (setting [12]) and in data set [1] (setting [13]) were 6.95, 7.05 and 5.47, respectively. The “Measured Osmolality” value in data set [2] is 113 mOsmol/L.
Take `CNC(C)Cc1ccc2occc2c1` (stereo not shown) [Example 5-MAPB, 1-(benzofuran-5-yl)-N-methylpropan-2-amine]: the Osmolality in data set [1] (setting [7]) was 556 mOsm/kg; in data set [1] (setting [8]), 215 mOsm/kg; in data set [1] (setting [9]) it was 1,004 mOsm/kg. For the same compound, the pH in data set [1] (setting [7]) was found to be 3.16; in data set [1] (setting [8]), 7.10; in data set [1] (setting [9]), 7.15. The “Measured Osmolality” value in data set [2] amounted to 215 mOsmol/L.
Consider `CN(C)CCc1c[nH]c2ccccc12` [DMT, N,N-Dimethyltryptamine], for which, in data set [3], the Appearance after filtration result is reported as “Clear/colorless”, the Osmolality turned out to be 300 mOsm/kg, the pH was determined as 11.10 and the “Amine Conc.” value worked out at 13.6 mg/mi.
Take `CNC1(c2ccccc2Cl)CCCCC1=O` (racemic) [Ketamine HCl]: the figures for the “Mean Osmolality” value in data set [5] (75 mg/mL) and in data set [5] (100 mg/mL) were 533.3 mOsm and 703.0 mOsm, respectively. The “Average osmolality ± SEM” value is 527 ± 2.69 mOsm/kg and 527.0 ± 2.7 mOsm/kg in data set [5] ([Ketamine] 70 mg/mL FB equiv., HCl); 704.4 ± 9.95 mOsm/kg and 704.4 ± 9.9 mOsm/kg in data set [5] ([Ketamine] 96 mg/mL FB equiv., HCl); 736.83 ± 3.7 mOsm/kg in data set [5] ([Ketamine] 100 mg/mL FB equiv.). In addition, in data set [6], the “Mean Volume Base to precip ± SEM” value was determined as 4 ± 0 µL.
On to `Cc1cccc(C(=O)C(C)N(C)C)c1` (stereo not shown) [Me-3-MMC, 2-(dimethylamino)-1-(m-tolyl)propan-1-one], for which the Osmolality in data set [1] (setting [7]) is listed as 578 mOsm/kg; in data set [1] (setting [8]), 321 mOsm/kg; in data set [1] (setting [9]) it was 1,151 mOsm/kg. The pH in data set [1] (setting [7]) was 4.44; in data set [1] (setting [8]), 6.95; in data set [1] (setting [9]) it was 7.00. Further, the “Measured Osmolality” value in data set [2] is 321 mOsmol/L.
Take `NC1Cc2ccc(I)cc2C1` (stereo not shown) [Example 5-IAI, 5-iodo-2,3-dihydro-JH-inden-2-amine]: the Osmolality in data set [1] (setting [8]) was 119 mOsm/kg; in data set [1] (setting [9]), 621 mOsm/kg; in data set [1] (setting [14]), 221 mOsm/kg. Further, the pH in data set [1] (setting [8]) is 6.97; in data set [1] (setting [9]), 6.98; in data set [1] (setting [14]) it was 4.62. The “Measured Osmolality” value in data set [2] is recorded as 119 mOsmol/L.
Turning to `CN1CCC[C@H]1c1cccnc1` [Nicotine, S-(−)-nicotine, reference compound], in data set [1] (setting [8]), the Osmolality is given as 555* mOsm/kg and the pH is 7.02*. In data set [1] (setting [15]), the Osmolality was 2,006 mOsm/kg and the pH stood at 6.97. In data set [1] (setting [16]), the Osmolality is 682 mOsm/kg and the pH turned out to be 3.80. For the same compound, in data set [2], the “Measured Osmolality” value turned out to be 555 mOsmol/L and the “Percentage of Theoretical” value was 110.1%.
